# PMC12403558, “Novel enzymes involved in the biotransformation of oxytetracycline by Arthrobacter nicotianae OTC-16” (Microbiology Spectrum, 2025)
# Tests used:
# prpD = target: T1, prpD (Glutamicibacter nicotianae, UniProt A0ABQ0RQ59); experiment: OTC depletion by HPLC after adding […] mg expressed protein extract; format: biochemical; settings: LB broth without strain OTC-16, 30 C, 180 rpm, 4 days, product not identified, not described as purified
# T1 construct: gene ANI01nite_31520; E. coli BL21(DE3) soluble extract, no purification described; about 55 kDa; primers encode N-term MINHPVR, C-term PKGLF
# T1 sequence (A0ABQ0RQ59 entry or part of it): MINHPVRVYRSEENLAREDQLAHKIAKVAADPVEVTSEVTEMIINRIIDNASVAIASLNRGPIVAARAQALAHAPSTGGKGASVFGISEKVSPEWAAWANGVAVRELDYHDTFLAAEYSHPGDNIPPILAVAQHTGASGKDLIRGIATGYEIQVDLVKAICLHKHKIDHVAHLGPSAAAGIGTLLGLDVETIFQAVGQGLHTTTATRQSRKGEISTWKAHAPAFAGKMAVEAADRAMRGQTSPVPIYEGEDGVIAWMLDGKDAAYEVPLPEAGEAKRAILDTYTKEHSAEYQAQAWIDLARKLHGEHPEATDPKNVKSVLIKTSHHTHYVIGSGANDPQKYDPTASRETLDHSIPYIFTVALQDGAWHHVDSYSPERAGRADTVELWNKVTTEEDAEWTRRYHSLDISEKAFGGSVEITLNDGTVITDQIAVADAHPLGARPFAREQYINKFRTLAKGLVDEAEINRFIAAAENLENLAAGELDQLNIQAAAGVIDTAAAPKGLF
# uaZ = target: T2, uaZ (Glutamicibacter nicotianae, UniProt A0ABQ0RHS3); experiment: as above; format: biochemical; settings: LB broth without strain OTC-16, 30 C, 180 rpm, 4 days, product not identified, not described as purified
# T2 construct: gene ANI01nite_05670; E. coli BL21(DE3) soluble extract, no purification described; about 34 kDa; primers encode N-term MTTEITAPAD, C-term IWANIPAFI
# T2 sequence (A0ABQ0RHS3 entry or part of it): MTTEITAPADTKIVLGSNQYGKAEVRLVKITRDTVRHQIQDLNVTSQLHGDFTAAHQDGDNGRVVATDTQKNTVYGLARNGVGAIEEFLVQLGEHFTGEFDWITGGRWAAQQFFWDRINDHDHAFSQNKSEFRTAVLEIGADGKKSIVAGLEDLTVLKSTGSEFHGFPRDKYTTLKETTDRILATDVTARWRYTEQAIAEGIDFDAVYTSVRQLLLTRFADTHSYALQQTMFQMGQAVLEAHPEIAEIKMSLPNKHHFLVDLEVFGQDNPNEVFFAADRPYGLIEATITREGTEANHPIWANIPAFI
structure (smiles),measurement,setting,value
CN(C)[C@@H]1C(=O)C(C(N)=O)=C(O)[C@@]2(O)C(=O)C3=C(O)c4c(O)cccc4[C@@](C)(O)[C@H]3[C@H](O)[C@@H]12 [oxytetracycline],OTC depletion by HPLC after adding 0.1 mg expressed protein extract,prpD,the degradation proteins prpD and uaZ exhibited degradation effects on OTC
same,OTC depletion by HPLC after adding 0.1 mg expressed protein extract,uaZ,the degradation proteins prpD and uaZ exhibited degradation effects on OTC
